Data from article PMC6002460, “Pharmacological evaluation of new constituents of “Spice”: synthetic cannabinoids based on indole, indazole, benzimidazole and carbazole scaffolds” (Forensic Toxicology, 2018).
Like-named read-outs stand apart in the source and are kept apart here.

Key:
CB1 receptor [1] = details: cited from earlier work
CB2 receptor [2] = details: cited from earlier work
human CB1 receptor [3] = target: T1, human CB1 receptor (Homo sapiens, UniProt P21554); test: biochemical; assay type: binding; details: [3H]CP55,940 0.1 nM, CHO cell membranes; read-out: Ki ± SEM Human CB1
T1 construct: expressed in transfected cells; host or cells: CHO cells (membrane preparations)

human CB2 receptor [4] = target: T2, human CB2 receptor (Homo sapiens, UniProt P34972); test: biochemical; assay type: binding; details: [3H]CP55,940 0.1 nM, CHO cell membranes; read-out: Ki ± SEM Human CB2
T2 construct: expressed in transfected cells; host or cells: CHO cells (membrane preparations)

CB2 receptor [5] = details: membrane potential assay, cited from earlier work
human GPR55 = target: T3, human GPR55 (Homo sapiens, UniProt Q9Y2T6); test: β-Arrestin PathHunter assay, recombinant CHO cells expressing GPR55; assay type: cell-based; details: for Human GPR55 % activation: agonist mode; for Human GPR55 % activation / Human GPR55 % inhibition: value in parentheses; for Human GPR55 % inhibition: antagonist mode versus LPI 1 µM
T3 construct: host or cells: CHO cells
Experimental: (§1) β-Arrestin assays were performed in recombinant CHO cells expressing either the human GPR18 or the human GPR55 as described before using the β-galactosidase enzyme fragment complementation technology (β-arrestin PathHunter™ assay; DiscoverX, Fremont, CA, USA).
(§2) The orphan receptors GPR18 and GPR55 can interact with certain natural and synthetic cannabinoids. […] Therefore, we investigated the new series of indole, indazole, benzimidazole and carbazole-derived structures in β-arrestin assays at GPR18 and GPR55 (Table 2). […] For the lipophilic substitutions, the following rank order of potency was observed: ethyl > methyl > chloro > fluoro. Therefore, it can be concluded that a lipophilic substitution in position 4 of the naphthyl residue was a requirement for GPR55 inhibition.

human CB1 receptor [6] = target: T1, human CB1 receptor; test: cAMP accumulation assay, CHO cells stably expressing CB1; assay type: cell-based; details: compound at 10 µM; normalized to CP55,940 (1 µM)
Experimental: (§3) cAMP accumulation assays were performed also as previously described. Briefly, CHO cells stably expressing the respective human CB receptor subtype CB1 or CB2 were seeded overnight. […] After incubation for 15 min the buffer was removed, and the cells were lyzed. The amount of cAMP was determined in a radioligand binding assay by incubating 50 µL of the cell lysate with 3 nM [^3H]cAMP in the presence of protein preparations from bovine adrenal glands (cAMP binding protein). Bound and unbound radioligand were separated by rapid filtration through GF/B filters, and radioactivity was determined by liquid scintillation counting. To test for antagonistic activity, test compounds were added to Hank’s buffered salt solution (HBSS) containing 10% dimethyl sulfoxide (DMSO), 10 min after the application of Ro-20-1724, and the mixture was incubated for 20 min at 37 °C.
(§4) As a next step, we investigated the compounds in cAMP accumulation assays, to obtain information on their functionality (Fig. 3). CB receptors are Gi protein-coupled and thus reduce the levels of cAMP in the cells upon activation.

human GPR18 = target: T4, human GPR18 (Homo sapiens, UniProt Q14330); test: β-Arrestin PathHunter assay, recombinant CHO cells expressing GPR18; assay type: cell-based; details: for Human GPR18 % activation: agonist mode; for Human GPR18 % activation / Human GPR18 % inhibition: value in parentheses; for Human GPR18 % inhibition: antagonist mode
T4 construct: host or cells: CHO cells
T4 sequence (Q14330 1-331): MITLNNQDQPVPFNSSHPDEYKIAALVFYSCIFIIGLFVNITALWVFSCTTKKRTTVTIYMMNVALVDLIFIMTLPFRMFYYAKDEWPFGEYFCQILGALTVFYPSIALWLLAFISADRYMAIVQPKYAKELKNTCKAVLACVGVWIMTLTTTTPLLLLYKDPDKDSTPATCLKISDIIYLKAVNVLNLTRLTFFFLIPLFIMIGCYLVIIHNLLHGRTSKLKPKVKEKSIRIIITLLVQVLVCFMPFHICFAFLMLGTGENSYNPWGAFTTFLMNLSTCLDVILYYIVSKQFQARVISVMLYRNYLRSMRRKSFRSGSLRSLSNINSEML
Experimental: as §1, §2

human CB2 receptor [7] = target: T2, human CB2 receptor; test: cAMP accumulation assay, CHO cells stably expressing CB2; assay type: cell-based; details: compound at 10 µM; normalized to CP55,940 (1 µM)
Experimental: as §3, §4

CB1 receptor [8] = details: membrane potential assay, cited from earlier work
CB1 receptor [9] = target: CB1 receptor; design: method as in Buchler et al. [37]; details: versus 0.5 nM [3H]CP55,940; ref Buchler et al. [37]; cited from earlier work
CB1 receptor [10] = target: CB1 receptor; design: method as in Wiley et al. [41]; details: versus 0.62 nM [3H]CP55,940; ref Wiley et al. [41]; cited from earlier work
CB2 receptor [11] = target: CB2 receptor; design: method as in Wiley et al. [41]; details: versus 0.62 nM [3H]CP55,940; ref Wiley et al. [41]; cited from earlier work
CB2 receptor [12] = target: CB2 receptor; design: method as in Bowden et al. [43]; details: HTRF cAMP accumulation; ref Bowden et al. [43]; cited from earlier work
CB1 receptor [13] = target: CB1 receptor; design: method as in Bowden et al. [43]; details: HTRF cAMP accumulation; ref Bowden et al. [43]; cited from earlier work

T1 sequence (P21554 whole entry): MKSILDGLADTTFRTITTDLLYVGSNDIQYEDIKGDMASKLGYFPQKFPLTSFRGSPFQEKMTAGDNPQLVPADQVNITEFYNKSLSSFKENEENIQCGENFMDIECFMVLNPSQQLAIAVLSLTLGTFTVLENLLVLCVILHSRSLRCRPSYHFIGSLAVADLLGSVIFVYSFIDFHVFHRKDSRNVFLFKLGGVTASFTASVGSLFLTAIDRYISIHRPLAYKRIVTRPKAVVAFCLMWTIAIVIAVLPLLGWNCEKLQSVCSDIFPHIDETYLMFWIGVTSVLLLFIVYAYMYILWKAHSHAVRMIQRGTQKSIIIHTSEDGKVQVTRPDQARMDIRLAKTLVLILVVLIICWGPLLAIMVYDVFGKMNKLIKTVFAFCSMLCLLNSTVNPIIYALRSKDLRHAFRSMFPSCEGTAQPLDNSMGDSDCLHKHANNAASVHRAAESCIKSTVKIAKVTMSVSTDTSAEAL
T2 sequence (P34972 whole entry): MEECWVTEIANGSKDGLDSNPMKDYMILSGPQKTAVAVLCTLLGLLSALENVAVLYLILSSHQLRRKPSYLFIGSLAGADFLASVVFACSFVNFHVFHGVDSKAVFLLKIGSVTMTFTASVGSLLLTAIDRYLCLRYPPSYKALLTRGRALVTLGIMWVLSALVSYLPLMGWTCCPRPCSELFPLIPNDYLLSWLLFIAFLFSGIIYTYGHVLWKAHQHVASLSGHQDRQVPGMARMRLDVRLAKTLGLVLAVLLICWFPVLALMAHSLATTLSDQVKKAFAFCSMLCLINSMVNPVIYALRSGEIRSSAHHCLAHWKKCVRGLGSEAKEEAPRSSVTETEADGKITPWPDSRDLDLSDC
T3 sequence (Q9Y2T6 whole entry): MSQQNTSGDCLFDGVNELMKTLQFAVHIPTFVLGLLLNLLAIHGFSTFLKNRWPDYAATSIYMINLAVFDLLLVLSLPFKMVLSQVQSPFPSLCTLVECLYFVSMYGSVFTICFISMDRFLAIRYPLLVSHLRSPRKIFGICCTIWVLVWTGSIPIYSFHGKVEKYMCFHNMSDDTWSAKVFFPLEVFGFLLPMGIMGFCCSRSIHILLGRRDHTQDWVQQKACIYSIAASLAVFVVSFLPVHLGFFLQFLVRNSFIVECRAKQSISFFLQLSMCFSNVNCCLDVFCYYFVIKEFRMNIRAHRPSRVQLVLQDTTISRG

CCCCCn1cc(C(=O)c2cccc3ccccc23)c2ccccc21 [compound 3, JWH-018, reference compound]
Ki (CB1 receptor [1]): 9 nM | Ki (CB2 receptor [2]): 2.9 nM | Ki (human CB1 receptor [3]): 1.51 ± 0.67 nM | Ki (human CB2 receptor [4]): 2.24 ± 1.2 nM

COC(=O)[C@@H](NC(=O)c1nn(CCCCCF)c2ccccc12)C(C)(C)C [compound 11, 5F-ADB]
EC50 (CB2 receptor [5]; ref Banister et al. [38]): 7.5 nM | EC50 (human GPR55): > 10000 nM | IC50 (human GPR55): > 10000 nM | Human GPR55 % activation (human GPR55): 0% | Human GPR55 % inhibition (human GPR55): 6% | CB1 receptor activation in cAMP accumulation assay (in words) (human CB1 receptor [6]): partial activation | Ki (human CB1 receptor [3]): 23.3 ± 10.2 nM | EC50 (human GPR18): > 10000 nM | IC50 (human GPR18): > 10000 nM | Human GPR18 % activation (human GPR18): > 10 (10%) | Ki (human CB2 receptor [4]): 5.99 ± 2.47 nM | CB2 receptor activation in cAMP accumulation assay (in words) (human CB2 receptor [7]): full agonists | EC50 (CB1 receptor [8]; ref Banister et al. [38]): 0.59 nM

CC(C)[C@H](NC(=O)c1nn(Cc2cccc(F)c2)c2ccccc12)C(N)=O [compound 18, AB-FUBINACA (3-F-benzyl-isomer)]
EC50 (human GPR55): > 10000 nM | IC50 (human GPR55): > 10000 nM | Human GPR55 % activation (human GPR55): 11% | Ki (human CB1 receptor [3]): 12.6 ± 0.7 nM | EC50 (human GPR18): > 10000 nM | IC50 (human GPR18): > 10000 nM | Human GPR18 % activation (human GPR18): > 10 (10%) | Ki (human CB2 receptor [4]): 52.2 ± 10.2 nM | Ki (CB1 receptor [9]): 51.1 nM

CC(C)[C@H](NC(=O)c1nn(Cc2ccccc2F)c2ccccc12)C(N)=O [compound 19, AB-FUBINACA (2-F-benzyl-isomer)]
EC50 (human GPR55): > 10000 nM | IC50 (human GPR55): > 10000 nM | Human GPR55 % activation (human GPR55): 15% | Ki (human CB1 receptor [3]): 6.91 ± 3.42 nM | EC50 (human GPR18): > 10000 nM | IC50 (human GPR18): > 10000 nM | Human GPR18 % activation (human GPR18): 11% | Ki (human CB2 receptor [4]): 25 ± 6.1 nM | Ki (CB1 receptor [9]): 4.69 nM

CC(C)[C@H](NC(=O)c1nn(CC2CCCCC2)c2ccccc12)C(N)=O [compound 20]
Ki (CB1 receptor [10]): 0.78 nM | Ki (CB2 receptor [11]): 0.45 nM | EC50 (human GPR55): > 10000 nM | IC50 (human GPR55): > 10000 nM | Human GPR55 % activation (human GPR55): 8% | Ki (human CB1 receptor [3]): 1.72 ± 0.14 nM | EC50 (human GPR18): > 10000 nM | IC50 (human GPR18): > 10000 nM | Human GPR18 % activation (human GPR18): 13% | Human GPR18 % inhibition (human GPR18): 11% | Ki (human CB2 receptor [4]): 1.91 ± 0.2 nM

NC(=O)[C@H](Cc1ccccc1)NC(=O)c1nn(Cc2ccc(F)cc2)c2ccccc12 [compound 29, APP-FUBINACA]
EC50 (human GPR55): > 10000 nM | IC50 (human GPR55): > 10000 nM | Human GPR55 % activation (human GPR55): 26% | CB1 receptor activation in cAMP accumulation assay (in words) (human CB1 receptor [6]): partial activation | Ki (human CB1 receptor [3]): 56.3 ± 19.8 nM | EC50 (human GPR18): > 10000 nM | IC50 (human GPR18): > 10000 nM | Human GPR18 % activation (human GPR18): 4% | Human GPR18 % inhibition (human GPR18): 21% | Ki (human CB2 receptor [4]): 58.1 ± 17.3 nM | CB2 receptor activation in cAMP accumulation assay (in words) (human CB2 receptor [7]): full agonists | Ki (CB1 receptor [9]): 47.6 nM

NC(=O)[C@H](Cc1ccccc1)NC(=O)c1nn(CC2CCCCC2)c2ccccc12 [compound 30]
EC50 (human GPR55): > 10000 nM | IC50 (human GPR55): > 10000 nM | Human GPR55 % activation (human GPR55): 11% | Human GPR55 % inhibition (human GPR55): 9% | Ki (human CB1 receptor [3]): 9.81 ± 4.56 nM | EC50 (human GPR18): > 10000 nM | IC50 (human GPR18): ~10000 nM | Human GPR18 % activation (human GPR18): 5% | Human GPR18 % inhibition (human GPR18): 57% | Ki (human CB2 receptor [4]): 4.39 ± 0.59 nM | Ki (CB1 receptor [9]): 47.5 nM

CCCCCn1cc(C(=O)NC(C)(C)c2ccccc2)c2ccccc21 [compound 31, Cumyl-PICA]
EC50 (CB2 receptor [5]; ref Longworth et al. [51]): 58.2 nM | EC50 (CB2 receptor [12]): 13 nM | EC50 (human GPR55): > 10000 nM | IC50 (human GPR55): > 10000 nM | Human GPR55 % activation (human GPR55): 11% | Human GPR55 % inhibition (human GPR55): 3% | Ki (human CB1 receptor [3]): 3.27 ± 0.32 nM | EC50 (human GPR18): > 10000 nM | IC50 (human GPR18): > 10000 nM | Human GPR18 % activation (human GPR18): 19% | Ki (human CB2 receptor [4]): 24 ± 8.8 nM | EC50 (CB1 receptor [8]; ref Longworth et al. [51]): 4.2 nM

CC(C)(NC(=O)c1cn(CCCCCF)c2ccccc12)c1ccccc1 [compound 32, 5F-Cumyl-PICA]
EC50 (CB2 receptor [5]; ref Longworth et al. [51]): 39.6 nM | EC50 (CB2 receptor [12]): 0.37 nM | EC50 (human GPR55): > 10000 nM | IC50 (human GPR55): > 10000 nM | Human GPR55 % activation (human GPR55): 14% | Ki (human CB1 receptor [3]): 1.37 ± 0.26 nM | EC50 (human GPR18): > 10000 nM | IC50 (human GPR18): > 10000 nM | Human GPR18 % activation (human GPR18): 16% | Ki (human CB2 receptor [4]): 29.1 ± 2.4 nM | EC50 (CB1 receptor [8]; ref Longworth et al. [51]): 2.8 nM | EC50 (CB1 receptor [13]): < 0.1 nM

CC(C)(NC(=O)c1nn(CC2CCOCC2)c2ccccc12)c1ccccc1 [compound 33]
EC50 (CB2 receptor [12]): 0.59 nM | EC50 (human GPR55): > 10000 nM | IC50 (human GPR55): > 10000 nM | Human GPR55 % activation (human GPR55): 11% | Human GPR55 % inhibition (human GPR55): 7% | Ki (human CB1 receptor [3]): 1.23 ± 0.2 nM | EC50 (human GPR18): > 10000 nM | IC50 (human GPR18): > 10000 nM | Human GPR18 % activation (human GPR18): 11% | Human GPR18 % inhibition (human GPR18): 9% | Ki (human CB2 receptor [4]): 1.38 ± 0.86 nM | EC50 (CB1 receptor [13]): 0.1 nM

COc1ccc(C(=O)c2c(C)n(CCN3CCOCC3)c3cc(I)ccc23)cc1 [compound 43, AM-630]
function at CB1 (in words) (CB1 receptor [1]): partial agonist | Ki (CB2 receptor [2]): 31.2 ± 12.4 nM | function at CB2 (in words) (CB2 receptor [2]): antagonist

Cc1ccc(Cn2nc(C(=O)N[C@@H]3C(C)(C)[C@@H]4CC[C@@]3(C)C4)cc2-c2ccc(Cl)c(C)c2)cc1 [compound 44, SR-144,528]
Ki (CB1 receptor [1]): 437 ± 33 nM | function at CB2 (in words) (CB2 receptor [2]): antagonist

CC1=CC[C@@H]2[C@@H](C1)c1c(O)cc(C(C)(C)CCCCCCBr)cc1OC2(C)C [compound 45, AM11542]
Ki (CB1 receptor [1]; co-crystallized agonist): 0.11 nM
